In brackets after ≈: the same amount, converted by molar mass. Read-outs that look alike come from different tables or passages of the source.
Legend:
Escherichia coli NIHTC-2 = assay: MIC, agar dilution method, pH 7.2; type: cell-based
Protocol: (§1) Measurement was carried out according to the agar dilution method, using a medium of pH 8.0, or the Japanese Antibiotic Medicament Standard, using a medium of pH 7.2 Units are in mcg/ml.

[1] = tested on: Eschericihia coli GN2411-5; assay: MIC, agar dilution method, pH 7.2; type: cell-based; settings: Escherichia coli, GN2411, pH 7.2, read-out: Minimum inhibition concentration (MIC)
Protocol: as §1

[2] = tested on: Klebsiella pneumoniae KY4274; assay: MIC, agar dilution method, pH 7.2; type: cell-based
Protocol: as §1

Proteus vulgaris JJ = assay: MIC, agar dilution method, pH 7.2; type: cell-based
Protocol: as §1

[3] = tested on: Pseudomonas aeruginosa BMH# 1; assay: MIC, agar dilution method, pH 7.2; type: cell-based; settings: pH 7.2; Pseudomonas aeruginosa BMH# 1; read-out: Minimum inhibition concentration (MIC)
Protocol: as §1

[4] = tested on: Pseudomonas aeruginosa UCLA 4184; assay: MIC, agar dilution method, pH 7.2; type: cell-based; settings: UCLA4184; pH 7.2; Pseudomonas aeruginosa UCLA 4184; read-out: Minimum inhibition concentration (MIC)
Protocol: as §1

[5] = tested on: Salmonella enteritidis G-14; assay: MIC, agar dilution method, pH 7.2; type: cell-based; settings: Salmonella enterica
Protocol: as §1

Shigella sonnei ATCC9290 = assay: MIC, agar dilution method, pH 7.2; type: cell-based; settings: read-out: Minimum inhibition concentration (MIC)
Protocol: as §1

[6] = tested on: Staphylococcus aureus 209-P; assay: MIC, agar dilution method, pH 7.2; type: cell-based; settings: pH 7.2; Staphylococcus aureus 209-P; read-out: Minimum inhibition concentration (MIC)
Protocol: as §1

[7] = tested on: Staphylococcus aureus Smith (A); assay: MIC, agar dilution method, pH 7.2; type: cell-based; settings: pH 7.2; Staphylococcus aureus Smith (A); read-out: Minimum inhibition concentration (MIC)
Protocol: as §1

[8] = tested on: Staphylococcus a ureus 226; assay: MIC, agar dilution method, pH 7.2; type: cell-based, Staphylococcus aureus; settings: pH 7.2; Staphylococcus aureus 226; read-out: Minimum inhibition concentration (MIC)
Protocol: as §1

Eschericihia coli 3100 = assay: MIC, agar dilution method, pH 7.2; type: cell-based, Escherichia coli; settings: Escherichia coli; pH 7.2; E. coli 3100; read-out: Minimum inhibition concentration (MIC)
Protocol: as §1

[9] = tested on: Escherichia coli 57R/W677; assay: MIC, agar dilution method, pH 7.2; type: cell-based; settings: 57R/W677, pH 7.2, read-out: Minimum inhibition concentration (MIC)
Protocol: as §1
(§2) **1: gentamicin, producing adenylsynthetase.

Escherichia coli 76-2 = assay: MIC, agar dilution method, pH 7.2; type: cell-based
Protocol: as §1, §2

[10] = tested on: Escherichia coli R12 Z-338; assay: MIC, agar dilution method, pH 7.2; type: cell-based
Protocol: as §1, §2

[11] = tested on: Klebsiella pneumoniae 3020 Y-60; assay: MIC, agar dilution method, pH 7.2; type: cell-based; settings: 3020Y60; pH 7.2; Klebsiella pneumoniae 3020 Y-60; 1**: gentamicin, producing adenylsynthetase; read-out: Minimum inhibition concentration (MIC)
Protocol: as §1, §2

[12] = tested on: Escherichia coli R18 KY8321; assay: MIC, agar dilution method, pH 7.2; type: cell-based; settings: R18KY8321, E. coli R18 KY8321, 2**: gentamicin, producing adenylsynthetase and neomycin phosphotransferase type II, read-out: Minimum inhibition concentration (MIC)
Protocol: as §1
2: gentamicin, producing adenylsynthetase and neomycin phosphotransferase

[13] = tested on: Escherichia coli R17 Z343; assay: MIC, agar dilution method, pH 7.2; type: cell-based
Protocol: as §1
(§3) 3: kanamycin, producing acetyltransferase.

[14] = tested on: Pseudomonas aeruginosa R9 KY8516; assay: MIC, agar dilution method, pH 7.2; type: cell-based; settings: R9KY8516, pH 7.2, P. aeruginosa R9 KY8516, 3**: kanamycin, producing acetyltransferase, read-out: Minimum inhibition concentration (MIC)
Protocol: as §1, §3

Serratia marcescens 1065 = assay: MIC, agar dilution method, pH 7.2; type: cell-based; settings: Serratia marcescens, 1065, pH 7.2, read-out: Minimum inhibition concentration (MIC)
Protocol: as §1, §3

[15] = tested on: Escherichia coli R19 KY8348; assay: MIC, agar dilution method, pH 7.2; type: cell-based; settings: R19KY8348, pH 7.2, E. coli R19 KY8348, 4**: gentamicin, producing acetyltransferase type I, read-out: Minimum inhibition concentration (MIC)
Protocol: as §1
(§4) 4: gentamicin, producing acetyltransferase type I.

[16] = tested on: Pseudomonas aeruginosa R4 KY8511; assay: MIC, agar dilution method, pH 7.2; type: cell-based; settings: R4KY8511, pH 7.2, P. aeruginosa R4 KY8511, 4**: gentamicin, producing acetyltransferase type I, read-out: Minimum inhibition concentration (MIC)
Protocol: as §1, §4

[17] = tested on: Escherichia coli R20 KY8349; assay: MIC, agar dilution method, pH 7.2; type: cell-based
Protocol: as §1
5: neomycin, producing phosphotransferase type I.

[18] = tested on: Pseudomonas aeruginosa R5 KY8512; assay: MIC, agar dilution method, pH 7.2; type: cell-based; settings: R5KY8512, pH 7.2, P. aeruginosa R5 KY8512, 6**: neomycin, producing phosphotransferase type I and type II, read-out: Minimum inhibition concentration (MIC)
Protocol: as §1
6: neomycin, producing phosphotransferase type I and type II.

Providencia sp 164 = assay: MIC, agar dilution method, pH 7.2; type: cell-based; settings: pH 7.2; Providencia sp 164; 7**: gentamicin, producing acetyltransferase type II; read-out: Minimum inhibition concentration (MIC)
Protocol: as §1
7: gentamicin, producing acetyltransferase type II.

[19] = tested on: Staphylococcus aureus KY4279 ATCC6538P; assay: MIC, agar dilution method, pH 8.0; type: cell-based; settings: pH 8.0, Staphylococcus aureus KY4279, read-out: Minimum inhibition concentration (MIC), SA
Protocol: as §1
S.A.: Staphylococcus aureus KY4279 ATCC6538P

Bacillus subtilis KY4273 = assay: MIC, agar dilution method, pH 8.0; type: cell-based; settings: pH 8.0; Bacillus subtilis KY4273; read-out: Minimum inhibition concentration (MIC), BS
Protocol: as §1
B.S.: Bacillus subtilis KY4273

[20] = tested on: Eschericia coli KY4271 ATCC26; assay: MIC, agar dilution method, pH 8.0; type: cell-based; settings: Escherichia coli, ATCC26; pH 8.0; E. coli KY4271; read-out: Minimum inhibition concentration (MIC), EC
Protocol: as §1
E.C.: Eschericia coli KY4271 ATCC26

[21] = tested on: Proteus vulgaris KY4277 ATCC6897; assay: MIC, agar dilution method, pH 8.0; type: cell-based; settings: ATCC6897; pH 8.0; Proteus vulgaris KY4277; read-out: Minimum inhibition concentration (MIC), PV
Protocol: as §1

[22] = tested on: Shigella sonnei KY4281 ATCC9290; assay: MIC, agar dilution method, pH 8.0; type: cell-based; settings: ATCC9290; pH 8.0; Shigella sonnei KY4281; read-out: Minimum inhibition concentration (MIC), SS
Protocol: as §1

[23] = tested on: Salmonella typhosa KY4278 ATCC9992; assay: MIC, agar dilution method, pH 8.0; type: cell-based; settings: Salmonella enterica, pH 8, read-out: Minimum inhibition concentration (MIC), ST
Protocol: as §1
S.T.: Salmonella typhosa KY4278 ATCC9992

[24] = tested on: Klebsiella pneumoniae KY4275 ATCC10031; assay: MIC, agar dilution method, pH 8.0; type: cell-based; settings: ATCC10031; pH 8.0; Klebsiella pneumoniae KY4275; read-out: Minimum inhibition concentration (MIC), KP
Protocol: as §1
K.P.: Klebsiella pneumoniae KY4275 ATCC10031.

Structure (SMILES) | MIC [1] | MIC [3] | MIC [4] | MIC (Shigella sonnei ATCC9290) | MIC [6] | MIC [7] | MIC [8] | MIC (Eschericihia coli 3100) | MIC [9] | MIC [11] | MIC [12] | MIC [14] | MIC (Serratia marcescens 1065) | MIC [15] | MIC [16] | MIC [18] | MIC (Providencia sp 164) | MIC [19] | MIC (Bacillus subtilis KY4273) | MIC [20] | also measured
CNCC[C@H](O)CN(C)[C@H]1[C@@H](O)[C@H](O[C@H]2O[C@H]([C@H](C)N)CC[C@H]2N)[C@@H](N)[C@H](O)[C@@H]1OC [Compound 28, 4-N-[(S)-4-methylamino-2-hydroxybutyl]fortimicin B] | 6.25 µg/mL (≈ 13.9 µM) | 12.5 µg/mL (≈ 27.8 µM) | 50 µg/mL (≈ 111 µM) | 6.25 µg/mL (≈ 13.9 µM) | 0.78 µg/mL (≈ 1.73 µM) | 0.4 µg/mL (≈ 0.89 µM) | 0.4 µg/mL (≈ 0.89 µM) | 12.5 µg/mL (≈ 27.8 µM) | 12.5 µg/mL (≈ 27.8 µM) | 12.5 µg/mL (≈ 27.8 µM) | 12.5 µg/mL (≈ 27.8 µM) | 50 µg/mL (≈ 111 µM) | 6.25 µg/mL (≈ 13.9 µM) | > 100 µg/mL | > 100 µg/mL | 12.5 µg/mL (≈ 27.8 µM) | 25 µg/mL (≈ 55.6 µM) | 0.04 µg/mL (≈ 0.089 µM) | 0.04 µg/mL (≈ 0.089 µM) | 0.08 µg/mL (≈ 0.178 µM) | MIC (Escherichia coli NIHTC-2; NIHTC2, pH 7.2, Escherichia coli NIHTC-2, read-out: Minimum inhibition concentration (MIC)): 1.56 µg/mL (≈ 3.47 µM); MIC ([2]; pH 7.2, Klebsiella pneumoniae KY4274, read-out: Minimum inhibition concentration (MIC)): 3.12 µg/mL (≈ 6.94 µM); MIC (Proteus vulgaris JJ; pH 7.2, Proteus vulgaris JJ, read-out: Minimum inhibition concentration (MIC)): 3.12 µg/mL (≈ 6.94 µM); MIC ([5]; pH 7.2, Salmonella enteritidis G-14, read-out: Minimum inhibition concentration (MIC)): 3.12 µg/mL (≈ 6.94 µM); MIC (Escherichia coli 76-2; Escherichia coli, 762, pH 7.2, E. coli 76-2, 1**: gentamicin, producing adenylsynthetase, read-out: Minimum inhibition concentration (MIC)): 3.12 µg/mL (≈ 6.94 µM); MIC ([10]; R12Z338, pH 7.2, read-out: Minimum inhibition concentration (MIC)): 6.25 µg/mL (≈ 13.9 µM); MIC ([13]; R17Z343, pH 7.2, E. coli R17 Z343, 3**: kanamycin, producing acetyltransferase, read-out: Minimum inhibition concentration (MIC)): 3.12 µg/mL (≈ 6.94 µM); MIC ([17]; R20KY8349, pH 7.2, read-out: Minimum inhibition concentration (MIC)): 1.25 µg/mL (≈ 2.78 µM); MIC [21]: 0.32 µg/mL (≈ 0.712 µM); MIC [22]: 0.63 µg/mL (≈ 1.4 µM); MIC [23]: 0.08 µg/mL (≈ 0.178 µM); MIC [24]: 0.32 µg/mL (≈ 0.712 µM)
CO[C@H]1[C@@H](O)[C@H](N)[C@@H](O[C@H]2O[C@H]([C@H](C)N)CC[C@H]2N)[C@H](O)[C@@H]1N(C)CC(O)CCN (stereo partly drawn) [Compound 29, 4-N-[(R,S)-4-amino-2-hydroxybutyl]fortimicin B] | 6.25 µg/mL (≈ 14.3 µM) | 12.5 µg/mL (≈ 28.7 µM) | 25 µg/mL (≈ 57.4 µM) | 6.25 µg/mL (≈ 14.3 µM) | 0.4 µg/mL (≈ 0.918 µM) | 0.4 µg/mL (≈ 0.918 µM) | 0.78 µg/mL (≈ 1.79 µM) | 12.5 µg/mL (≈ 28.7 µM) | 12.5 µg/mL (≈ 28.7 µM) | 25 µg/mL (≈ 57.4 µM) | 12.5 µg/mL (≈ 28.7 µM) | 50 µg/mL (≈ 115 µM) | 6.25 µg/mL (≈ 14.3 µM) | > 100 µg/mL | > 100 µg/mL | 12.5 µg/mL (≈ 28.7 µM) | 25 µg/mL (≈ 57.4 µM) | 0.08 µg/mL (≈ 0.184 µM) | 0.04 µg/mL (≈ 0.0918 µM) | 0.16 µg/mL (≈ 0.367 µM) | MIC (Escherichia coli NIHTC-2; Escherichia coli, NIHTC2, pH 7.2, read-out: Minimum inhibition concentration (MIC)): 3.12 µg/mL (≈ 7.16 µM); MIC ([2]; Klebsiella pneumoniae, KY4274, pH 7.2, read-out: Minimum inhibition concentration (MIC)): 6.25 µg/mL (≈ 14.3 µM); MIC (Proteus vulgaris JJ; Proteus vulgaris, pH 7.2, read-out: Minimum inhibition concentration (MIC)): 3.12 µg/mL (≈ 7.16 µM); MIC ([5]; ENTERITIDIS, pH 7.2, read-out: Minimum inhibition concentration (MIC)): 6.25 µg/mL (≈ 14.3 µM); MIC (Escherichia coli 76-2; Escherichia coli, 762, pH 7.2, read-out: Minimum inhibition concentration (MIC)): 3.12 µg/mL (≈ 7.16 µM); MIC ([10]; R12Z338, pH 7.2, E. coli R12 Z-338, 1**: gentamicin, producing adenylsynthetase, read-out: Minimum inhibition concentration (MIC)): 12.5 µg/mL (≈ 28.7 µM); MIC ([13]; R17Z343, pH 7.2, read-out: Minimum inhibition concentration (MIC)): 3.12 µg/mL (≈ 7.16 µM); MIC ([17]; R20KY8349, pH 7.2, E. coli R20 KY8349, 5**: neomycin, producing phosphotransferase type I, read-out: Minimum inhibition concentration (MIC)): 3.12 µg/mL (≈ 7.16 µM); MIC [21]: 0.32 µg/mL (≈ 0.735 µM); MIC [22]: 0.63 µg/mL (≈ 1.45 µM); MIC [23]: 0.16 µg/mL (≈ 0.367 µM); MIC [24]: 0.63 µg/mL (≈ 1.45 µM)

Reference: patent publication US4220755A, “Fortimicin B derivatives and process for production thereof” (Abbott Laboratories, priority 1976, dated 1980)
